Data set [1] has as its system LLC-HM primary tumor. The data set can be described thus: LLC-HM primary tumor model, preclinical studies in mice. The data set is classed as in vivo.
The test system of data set [2] is human KM12 colorectal cancer xenograft. The data set can be described thus: Human KM12 colorectal cancer xenograft, metastasis. It counts as in vivo, mice. The text has this: (§1) A reduction of metastasis in a human KM12 colorectal cancer xenograft and reduced metastasis and increase in survival in the murine mammary (4T1) model were also observed with ANGIOZYME treatment.
(In general: A xenograft is tissue or cells of one species grown in another, often human tumour cells in immunodeficient mice.)

Data set [3] has as its system HEY ovarian, SK-MEL-1 melanoma and ACHN renal carcinoma cell lines. The data set can be described thus: Murine dermis model, peritumoral vessels. The data set is classed as in vivo.
The test system of data set [4] is late-stage metastatic breast cancer. The data set can be described thus: Phase II monotherapy trial RPI0001, tumor response. The data set is classed as in vivo, human. The method, then: (§2) In a Phase II monotherapy ANGIOZYME trial, 45 late-stage metastatic breast cancer patients who had failed multiple prior treatments received 100 mg/m^2 ANGIOZYME by daily SC injection. Due of the critical nature of the disease, most progressed and discontinued drug at the first evaluation (week 6). […] Clinical and biomarker results are summarized.
(§3) In RPI0001, ANGIOZYME monotherapy decreased sVEGFR-1 levels in the metastatic breast cancer setting, although there were no responses in this late-stage disease population.

Data set [5] can be described thus: Preclinical absorption after subcutaneous administration. Particulars: subcutaneous (SC) administration. The data set is classed as in vivo.
Source text: as §1

The test system of data set [6] is murine mammary (4T1) model. The data set can be described thus: Murine mammary (4T1) model. The data set is classed as in vivo.
Source text: as §1

Data set [7] is described as follows: Phase II study RPI0003 (IFL + ANGIOZYME), adverse events. The data set is classed as in vivo, human. The method, then: Beginning on study day 4, patients received daily doses of 100 mg/m^2 ANGIOZYME by subcutaneous injection. Unidimensional tumor measurements were obtained from CT scans after 12 and 24 weeks of treatment. Responses were then confirmed 4 weeks following initial response. ANGIOZYME treatment continued until disease progression.
Adverse event reporting for RPI0003 is ongoing for the 6 patients continuing to receive ANGIOZYME in the maintenance protocolis. […] One patient has discontinued RPI0003 due to an ISR.
Of the MedDRA organ system classes most likely to be affected by antiangiogenic drugs, only the vascular complications (DVT/PE) may appear in excess in this study. […] This observation was communicated to the FDA in September, 2002. Patients continue in the maintenance trial with all PEs and DVTs being classified as serious and ANGIOZYME-related to ensure complete reporting of these events.

The nature of data set [8]: 13-week toxicology studies. The data set is classed as in vivo. The note with it: doses up to 300 mg/m^2/d.
Data set [9] can be described thus: Phase I clinical trials, tolerability. The note with it: doses up to 300 mg/m^2 administered IV or SC. The data set is classed as in vivo, human.
The subject of data set [10] is sVEGFR-1. The data set can be described thus: Phase II monotherapy trial RPI0001, sVEGFR-1 level. It counts as in vivo, human. The note with it: monotherapy 100 mg/m^2 daily SC, metastatic breast cancer patients, by week 6. The method, then:
as §2, §3

Data set [11] deals with metastatic colorectal cancer. The note with it: cited from earlier work.

Entries after “also recorded” stand apart in the source; their conditions may differ.

Take “ANGIOZYME: stabilized ribozyme that targets the pre-mRNA of vascular endothelial growth factor receptor-1 (VEGFR-1); structure in FIG. 8 (GAGUUGCUGAUGAGGCCGAAAGGCCGAAAGUCUG; stabilized ribozyme, chemical modifications not given here)”: the “growth of the LLC-HM primary tumor” value in data set [1] is on record as “inhibited the growth of the LLC-HM primary tumor in a dose-dependent manner”. Moreover, the “mean vascular density in tumor sections” value in [1] (LLC-HM model) is “decreased”. Further, the “number of lung metastases” value in data set [1] (LLC-HM model) is on record as “reduced”. In addition, the metastasis entry in data set [2] was “reduction”; in data set [6], “reduced”. Besides, the “interaction with interferon treatment” value in data set [3] is given as “synergistic”. The “number of peritumoral vessels” value in data set [3] (HEY, SK-MEL-1, ACHN cell lines) was “reduced”. Further, the tumor responses entry in data set [4] is recorded as “no responses”. Further, in data set [5], the absorption result is “well absorbed”. Also, the survival entry in data set [6] was “increase”. Further, the “patients discontinued due to an injection site reaction (ISR)” value in [7] (RPI0003) is listed as “One”. Further, the tolerability result is “well tolerated” in data set [7] (RPI0003, daily SC injection in combination with IFL); “well tolerated” in data set [8]; “well tolerated” in data set [9]. The “toxicity added to the chemotherapy” value in data set [7] (RPI0003, with the possible exception of increased vascular complications) is reported as “added no toxicity”. Moreover, the “most frequent adverse experiences” value in data set [7] (RPI0003 and all other ANGIOZYME studies) is “injection site reactions”. Further, in data set [10], the “change in sVEGFR-1” value is “significant decrease; also recorded: decreased”.

Turning to “irinotecan/5-fluorouracil/leucovorin [IFL]”, in data set [11] (IFL alone, patients who received IFL, good performance status, CT at 12 or 24 weeks), the response rate is approximately 40%. Moreover, the “Median time to progression (TTP)” value in data set [11] (IFL arm of the Pharmacia study) is given as more than 7.0 months. In data set [11] (N = 192, Pharmacia 0038), the “At least Stable at Week 12” value is on record as 83%; the “At least Stable at Week 24” value was 80%; the “Best Overall Response (Week 24)” value is 37%; the “Best Overall Response, Confirmed at Week 12” value was 35%. In addition, in [11] (N = 192, Pharmacia 0038), the “Best Overall Response, Unconfirmed at Week 12” value is listed as 48% and the “Discontinued by Week 12 Due to Disease Progression” value is 12%.
